How the values were obtained:
LNCaP cells = test: Proliferation assay with LNCaP cells; assay type: cell-based; conditions: Homo sapiens, 168 h, in the presence of 1×10^−10 M R1881, seven days, AlamarBlue, read-out: IC50 LNCaP cell proliferation
Description: LNCaP cells (Horoszewicz et al., in “Models for Prostate Cancer” (ed. G. P. Murphy), Alan R. Liss, New York 1981, p. 115-132; Horoszewicz et al., Cancer Res. 43: 1809-1818, 1983) were plated out at a density of 2000 cells per well of a 96-well cell culture plate in RMPI 1640 medium (F1275, Biochrom AG), which contained activated charcoal-treated calf serum (FCS Serum Gold, PAA Laboratories) at a concentration of 5% (v/v). Three days later the cells were treated with the test substances in concentrations from 1×10^−8 to 1×10^−10 M in the presence of 1×10^−10 M R1881. Cell proliferation was determined seven days later after incubation for 2 hours with AlamarBlue (DAL1100, Invitrogen) (Nakayama et al., J Immunol Methods, 204(2): 205-8, 1997). The fluorescence values obtained were normalized, wherein 100% corresponded to the effect of the unstimulated control (without R1881), and 0% corresponded to the effect of the stimulated control (R1881 plus DMSO instead of test substance). The IC50 value was determined by regression analysis based on a four-parameter equation (minimum, maximum, IC50, Hill coefficient; Y=Max+(Min−Max)/(1+(X/IC50)^Hill)).

[1] = target: human androgen receptor (full length, wild-type form) (Homo sapiens (Human), UniProt P10275); test: Transactivation assay for the wild-type androgen receptor (PC-3 cells, MMTV-luciferase reporter); assay type: cell-based; conditions: in the presence of R1881, 16 hours
Chain of human androgen receptor (full length, wild-type form) (P10275 whole entry): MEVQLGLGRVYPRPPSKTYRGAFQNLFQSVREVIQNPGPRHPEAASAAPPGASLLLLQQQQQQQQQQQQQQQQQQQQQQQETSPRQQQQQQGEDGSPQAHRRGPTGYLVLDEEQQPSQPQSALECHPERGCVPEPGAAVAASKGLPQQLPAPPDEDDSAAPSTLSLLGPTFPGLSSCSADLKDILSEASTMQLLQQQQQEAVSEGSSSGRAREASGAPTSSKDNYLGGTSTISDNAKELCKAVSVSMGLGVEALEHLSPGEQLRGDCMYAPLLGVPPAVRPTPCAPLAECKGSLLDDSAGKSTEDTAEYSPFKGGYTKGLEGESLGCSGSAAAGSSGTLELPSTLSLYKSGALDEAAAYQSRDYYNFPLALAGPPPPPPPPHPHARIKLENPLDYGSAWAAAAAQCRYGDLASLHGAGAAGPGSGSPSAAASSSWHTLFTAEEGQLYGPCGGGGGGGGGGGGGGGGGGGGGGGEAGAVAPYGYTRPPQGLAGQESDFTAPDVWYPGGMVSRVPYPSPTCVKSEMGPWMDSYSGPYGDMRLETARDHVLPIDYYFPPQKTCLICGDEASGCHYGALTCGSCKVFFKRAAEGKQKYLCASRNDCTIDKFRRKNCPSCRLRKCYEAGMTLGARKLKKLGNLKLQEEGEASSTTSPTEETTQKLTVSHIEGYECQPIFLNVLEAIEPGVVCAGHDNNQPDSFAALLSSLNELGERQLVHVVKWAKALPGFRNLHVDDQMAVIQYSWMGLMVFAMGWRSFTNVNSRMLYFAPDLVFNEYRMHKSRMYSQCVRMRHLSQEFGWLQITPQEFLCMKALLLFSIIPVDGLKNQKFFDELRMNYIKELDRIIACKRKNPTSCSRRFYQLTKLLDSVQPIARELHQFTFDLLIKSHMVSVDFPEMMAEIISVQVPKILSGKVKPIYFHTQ
From the text: For determining the androgen receptor-dependent transcription, a cellular assay system was used, consisting of PC-3 cells (Kaighn et al., Invest. Urol. 17: 16-23, 1979), which express the human androgen receptor stably and recombinantly (full length, wild-type form, see Swiss-Prot Acc. No. P10275, Entry Version 159, Sequence Version 2). In addition, these PC3 cells contain a stably integrated reporter gene plasmid, which is based on the commercially available plasmid pGL4.14 (#E6691, Promega Corporation, Madison, Wis., USA) and contains the luciferase gene from the American firefly (Photinus pyralis) under the control of the MMTV promoter (Cato et al., EMBO J. 6: 363-368, 1987). These cells were propagated in routine cell culture at 37° C. and 5% CO2 in a medium containing 90% RPMI 1640 (Invitrogen GmbH, Darmstadt, Germany), 100 U penicillin, 100 μg/ml streptomycin (Invitrogen), 4 mM L-glutamine (Invitrogen), 10% fetal calf serum (FCS Serum Gold, PAA Laboratories GmbH, Cölbe, Germany), 600 μg/ml Geneticin (G418-sulphate, Invitrogen) and 10 μg/ml puromycin (Sigma Aldrich GmbH, Germany).
For carrying out the transactivation assays, approx. 1000 cells per well were plated out in a 384-well cell culture plate in a medium that contained activated charcoal-treated calf serum (FCS Serum Gold, PAA Laboratories) at a concentration of 5% (v/v). The test substances were added in a concentration series from 5.12×10^−12 to 1×10^−5 M in the presence of […] R1881 (methyltrienolone). The test plates were incubated overnight at 37° C. and 5% CO2. After 16 hours, 15 μl of Steady Glo Lysis and Detection reagent (E2550, Promega Corporation, Madison, Wis., USA) was added per well and the luminescence was read in a Topcount Luminometer (PerkinElmer, Waltham, Mass., USA) for 4 seconds per well. The luminescence values obtained were normalized, wherein 100% corresponded to the effect of the unstimulated control (without R1881), and 0% corresponded to the effect of the stimulated control (R1881 plus DMSO instead of test substance). The IC50 value was determined by regression analysis based on a four-parameter equation (minimum, maximum, IC50, Hill coefficient; Y=Max+(Min−Max)/(1+(X/IC50)^Hill)).

Row | SMILES | IC50 (LNCaP cells) | IC50 [1]
1 | O=C(NC[C@H]1CC[C@H](Oc2ccnc3c(F)cccc23)CC1)c1ccc(F)cc1 [Example 1, N-({trans-4-[(8-fluoroquinolin-4-yl)oxy]cyclohexyl}methyl)-4-fluorobenzamide] | 170 nM | 240 nM
2 | Cc1cc(C(=O)N[C@H]2CC[C@H](Oc3ccnc4c(Br)cccc34)CC2)no1 [Example 2, N-{trans-4-[(8-bromoquinolin-4-yl)oxy]cyclohexyl}-5-methylisoxazole-3-carboxamide] | – | 20 nM
3 | O=C(N[C@H]1CC[C@H](Oc2ccnc3ccccc23)CC1)c1ccc(F)c(F)c1 [Example 3, N-[trans-4-(4-quinolyloxy)cyclohexyl]-3,4-difluorobenzamide] | 99 nM | 45 nM
4 | Cc1nocc1C(=O)NC[C@H]1CC[C@H](Oc2ccnc3c(F)cccc23)CC1 [Example 4, N-({trans-4-[(8-fluoroquinolin-4-yl)oxy]cyclohexyl}methyl)-3-methylisoxazole-4-carboxamide] | 250 nM | 210 nM
5 | O=C(NC[C@H]1CC[C@H](Oc2ccnc3c(F)cccc23)CC1)c1ccno1 [Example 5, N-({trans-4-[(8-fluoroquinolin-4-yl)oxy]cyclohexyl}methyl)-isoxazole-5-carboxamide] | 390 nM | 460 nM
6 | O=C(NC[C@H]1CC[C@H](Oc2ccnc3c(F)cccc23)CC1)c1ccon1 [Example 6, N-({trans-4-[(8-fluoroquinolin-4-yl)oxy]cyclohexyl}methyl)isoxazole-3-carboxamide] | 21 nM | 740 nM
7 | Cc1cc(C(=O)NC[C@H]2CC[C@H](Oc3ccnc4c(F)cccc34)CC2)no1 [Example 7, N-({trans-4-[(8-fluoroquinolin-4-yl)oxy]cyclohexyl}methyl)-5-methylisoxazole-3-carboxamide] | 97 nM | 480 nM
8 | O=C(NC[C@H]1CC[C@H](Oc2ccnc3c(F)cccc23)CC1)c1cc[nH]n1 [Example 8, N-({trans-4-[(8-fluoroquinolin-4-yl)oxy]cyclohexyl}methyl)-1H-pyrazole-3-carboxamide] | 1120 nM | 420 nM
9 | O=C(N[C@H]1CC[C@H](Oc2ccnc3c(Br)cccc23)CC1)c1cccc(F)c1 [Example 12, N-{trans-4-[(8-bromoquinolin-4-yl)oxy]cyclohexyl}-3-fluorobenzamide] | – | 93 nM
10 | O=C(N[C@H]1CC[C@H](Oc2ccnc3c(Br)cccc23)CC1)c1ccc(F)c(F)c1 [Example 13, N-{trans-4-[(8-bromoquinolin-4-yl)oxy]cyclohexyl}-3,4-difluorobenzamide] | – | 170 nM
11 | Cc1ccc(C(=O)N[C@H]2CC[C@H](Oc3ccnc4c(Br)cccc34)CC2)cc1F [Example 14, N-{trans-4-[(8-bromoquinolin-4-yl)oxy]cyclohexyl}-3-fluoro-4-methylbenzamide] | – | 68 nM
12 | N#Cc1ccc(C(=O)N[C@H]2CC[C@H](Oc3ccnc4c(Br)cccc34)CC2)cc1 [Example 15, N-{trans-4-[(8-bromoquinolin-4-yl)oxy]cyclohexyl}-4-cyanobenzamide] | 190 nM | 261 nM
13 | O=C(N[C@H]1CC[C@H](Oc2ccnc3c(Br)cccc23)CC1)c1ccc(C(F)(F)F)c(F)c1 [Example 16, N-{trans-4-[(8-bromoquinolin-4-yl)oxy]cyclohexyl}-3-fluoro-4-(trifluoromethyl)benzamide] | – | 463 nM
14 | O=C(N[C@H]1CC[C@H](Oc2ccnc3c(Br)cccc23)CC1)c1ccc(F)cc1 [Example 17, N-{trans-4-[(8-bromoquinolin-4-yl)oxy]cyclohexyl}-4-fluorobenzamide] | – | 477 nM
15 | O=C(N[C@H]1CC[C@H](Oc2ccnc3c(Br)cccc23)CC1)c1ccc(F)c(Cl)c1 [Example 18, N-{trans-4-[(8-bromoquinolin-4-yl)oxy]cyclohexyl}-3-chloro-4-fluorobenzamide] | – | 190 nM
16 | Cc1cc(C(=O)NC[C@H]2CC[C@H](Oc3ccnc4c(Br)cccc34)CC2)no1 [Example 20, N-({trans-4-[(8-bromoquinolin-4-yl)oxy]cyclohexyl}methyl)-5-methylisoxazole-3-carboxamide] | – | 690 nM
17 | O=C(NC[C@H]1CC[C@H](Oc2ccnc3c(Br)cccc23)CC1)c1ccon1 [Example 21, N-({trans-4-[(8-bromoquinolin-4-yl)oxy]cyclohexyl}methyl)isoxazole-3-carboxamide] | – | 630 nM
18 | N#Cc1ccc(C(=O)NC[C@H]2CC[C@H](Oc3ccnc4ccccc34)CC2)cc1 [Example 22, N-{[trans-4-(4-quinolyloxy)cyclohexyl]methyl}-4-cyanobenzamide] | 87 nM | 330 nM
19 | N#Cc1cccc2c(O[C@H]3CC[C@H](NC(=O)c4ccc(F)cc4)CC3)ccnc12 [Example 25, N-{trans-4-[(8-cyanoquinolin-4-yl)oxy]cyclohexyl}-4-fluorobenzamide] | 233 nM | 140 nM
20 | Cc1cc(C(=O)N[C@H]2CC[C@H](Oc3ccnc4c(C#N)cccc34)CC2)no1 [Example 26, N-{trans-4-[(8-cyanoquinolin-4-yl)oxy]cyclohexyl}-5-methylisoxazole-3-carboxamide] | – | 18 nM
21 | N#Cc1cccc2c(O[C@H]3CC[C@H](NC(=O)c4ccc(F)c(Cl)c4)CC3)ccnc12 [Example 27, 3-chloro-N-{trans-4-[(8-cyanoquinolin-4-yl)oxy]cyclohexyl}-4-fluorobenzamide] | – | 67 nM
22 | Cc1ccc(C(=O)N[C@H]2CC[C@H](Oc3ccnc4c(C#N)cccc34)CC2)cc1F [Example 28, N-{trans-4-[(8-cyanoquinolin-4-yl)oxy]cyclohexyl}-3-fluoro-4-methylbenzamide] | 51 nM | 45 nM
23 | N#Cc1cccc2c(O[C@H]3CC[C@H](NC(=O)c4ccc(Cl)c(F)c4)CC3)ccnc12 [Example 29, 4-chloro-N-{trans-4-[(8-cyanoquinolin-4-yl)oxy]cyclohexyl}-3-fluorobenzamide] | 29 nM | 61 nM
24 | N#Cc1cccc2c(O[C@H]3CC[C@H](NC(=O)c4cc(F)cc(F)c4)CC3)ccnc12 [Example 30, N-{trans-4-[(8-cyanoquinolin-4-yl)oxy]cyclohexyl}-3,5-difluorobenzamide] | 30 nM | 39 nM
25 | N#Cc1cccc2c(O[C@H]3CC[C@H](CNC(=O)c4ccon4)CC3)ccnc12 [Example 31, N-({trans-4-[(8-cyanoquinolin-4-yl)oxy]cyclohexyl}methyl)isoxazole-3-carboxamide] | 730 nM | 720 nM
26 | Cc1cc(C(=O)NC[C@H]2CC[C@H](Oc3ccnc4c(C#N)cccc34)CC2)no1 [Example 32, N-({trans-4-[(8-cyanoquinolin-4-yl)oxy]cyclohexyl}methyl)-5-methylisoxazole-3-carboxamide] | 560 nM | 650 nM

Source: patent US9428460B2, “N-[4-(quinolin-4-yloxy)cyclohexyl(methyl)](hetero)arylcarboxamides as androgen receptor antagonists, production and use thereof as medicinal products” (BAYER PHARMA AKTIENGESELLSCHAFT, priority 2012, dated 2016)
